Test results as given in patent publication US12491159B2, “Controlled release formulations for the induction and proliferation of blood cells” (UNIVERSITY OF PITTSBURGH—OF THE COMMONWEALTH SYSTEM OF …, priority 2012, dated 2025).
No end group written: not given here.

Key:
naïve CD4+CD25− cells = assay: Treg induction from naïve T cells by soluble factors (FoxP3 staining, flow cytometry); type: cell-based, mouse
[1] = tested on: dendritic cells / FoxP3+ CD4+ T-cells; assay: VIP bioactivity assay: DC culture and CD4+ T cell chemotaxis; type: cell-based, mouse; conditions: LPS
Description: Three separate DC cultures with 24 individual wells were completed in accordance with Example XIII Both GM-CSF and IL-4 were used to culture the cells in the first two DC cell cultures, but for the third DC culture, the IL-4 was omitted to reduce its possible interference in steering immune cells toward a tolerogenic phenotype. Chemotaxis studies of CD4+ T-cells were performed and the percent of FoxP3+ T-cells which flowed through the transwells for each group was evaluated using flow. The data is presented as a normalized percent of FoxP3+ cells which were recruited by the DCs for the first DC when both IL-4 and GM-CSF were used to culture the DC precursors and when GM-CSF was used alone in the last DC culture. […] See, FIG. 15.
When the DC culture was repeated with the absence of IL-4 and addition of 5×GM-CSF, flow cytometry indicated slightly different trends. […]
In the first two experiments, both GM-CSF and IL-4 were added to DC media (modified RPMI 1640) of bone marrow cell cultures during media changes on Days 0, 3 and 6. […] Five different groups of four wells each were analyzed and received treatment. […]
CD4+ T-cells were isolated from the spleen and lymph nodes of a mouse using Dynal® beads following a standard protocol. […] T Cells that flowed through were analyzed for FoxP3+ expression using flow cytometry.

[2] = cited from earlier work

CO[C@H]1C[C@@H]2CC[C@@H](C)[C@@](O)(O2)C(=O)C(=O)N2CCCC[C@H]2C(=O)O[C@H]([C@H](C)C[C@@H]2CC[C@@H](O)[C@H](OC)C2)CC(=O)[C@H](C)/C=C(\C)[C@@H](O)[C@@H](OC)C(=O)[C@H](C)C[C@H](C)/C=C/C=C/C=C/1C [Rapa, rapamycin]
percent of CD4+ that express FoxP3 (naïve CD4+CD25− cells; Rapa 1 ng/ml, TGF-β 0 ng/ml): 1.91% | percent of CD4+ that express FoxP3 (naïve CD4+CD25− cells; Rapa 1 ng/ml, TGF-β 0.1 ng/ml): 3.04% | percent of CD4+ that express FoxP3 (naïve CD4+CD25− cells; Rapa 1 ng/ml, TGF-β 1 ng/ml): 8.89% | percent of CD4+ that express FoxP3 (naïve CD4+CD25− cells; Rapa 1 ng/ml, TGF-β 5 ng/ml): 34.41% | percent of CD4+ that express FoxP3 (naïve CD4+CD25− cells; Rapa 1 ng/ml, TGF-β 20 ng/ml): 76.22% | percent of CD4+ that express FoxP3 (naïve CD4+CD25− cells; Rapa 10 ng/ml, TGF-β 0 ng/ml): 3.45% | percent of CD4+ that express FoxP3 (naïve CD4+CD25− cells; Rapa 10 ng/ml, TGF-β 0.1 ng/ml): 5.31% | percent of CD4+ that express FoxP3 (naïve CD4+CD25− cells; Rapa 10 ng/ml, TGF-β 1 ng/ml): 14.48% | percent of CD4+ that express FoxP3 (naïve CD4+CD25− cells; Rapa 10 ng/ml, TGF-β 5 ng/ml): 51.08% | percent of CD4+ that express FoxP3 (naïve CD4+CD25− cells; Rapa 10 ng/ml, TGF-β 20 ng/ml): 78.27% | percent of CD4+ that express FoxP3 (naïve CD4+CD25− cells; Rapa 100 ng/ml, TGF-β 0 ng/ml): 4.13% | percent of CD4+ that express FoxP3 (naïve CD4+CD25− cells; Rapa 100 ng/ml, TGF-β 0.1 ng/ml): 7.8% | percent of CD4+ that express FoxP3 (naïve CD4+CD25− cells; Rapa 100 ng/ml, TGF-β 1 ng/ml): 22.05% | percent of CD4+ that express FoxP3 (naïve CD4+CD25− cells; Rapa 100 ng/ml, TGF-β 5 ng/ml): 54.19% | percent of CD4+ that express FoxP3 (naïve CD4+CD25− cells; Rapa 100 ng/ml, TGF-β 20 ng/ml): 80.36%

TGF-β: recombinant human TGF-β1 (CHO cell-derived, PeproTech), transforming growth factor β1
percent of CD4+ that express FoxP3 (naïve CD4+CD25− cells; RA 0 ng/ml, TGF-β 0.5 ng/ml (Table 2)): 8.08% | percent of CD4+ that express FoxP3 (naïve CD4+CD25− cells; RA 0 ng/ml, TGF-β 5 ng/ml (Table 2)): 28.52% | percent of CD4+ that express FoxP3 (naïve CD4+CD25− cells; RA 0 ng/ml, TGF-β 20 ng/ml (Table 2)): 27.42% | percent of CD4+ that express FoxP3 (naïve CD4+CD25− cells; Rapa 0 ng/ml, TGF-β 0.1 ng/ml (Table 1)): 0.61% | percent of CD4+ that express FoxP3 (naïve CD4+CD25− cells; Rapa 0 ng/ml, TGF-β 1 ng/ml (Table 1)): 2.82% | percent of CD4+ that express FoxP3 (naïve CD4+CD25− cells; Rapa 0 ng/ml, TGF-β 5 ng/ml (Table 1)): 18.16% | percent of CD4+ that express FoxP3 (naïve CD4+CD25− cells; Rapa 0 ng/ml, TGF-β 20 ng/ml (Table 1)): 53.26%

VIP: Vasoactive intestinal peptide, a 28-amino acid neuropeptide (HSDAVFTDNYTRLRKQMAVKKYLNSILN; ends and bridges not checked; UniProt P01282 125-152, looked up)
percentage of FoxP3+ cells recruited by treated DCs ([1]; DC precursors cultured with IL-4 and GM-CSF, versus LPS only or blank particle releasates): recruited a higher percentage of FoxP3+ cells | percentage of FoxP3+ cells recruited by treated DCs ([1]; no IL-4, 5×GM-CSF, relative to LPS alone): recruited the same percentage of FoxP3+ cells

CC1=C(/C=C/C(C)=C/C=C/C(C)=C/C(=O)O)C(C)(C)CCC1 [RA, all-trans retinoic acid]
percent of CD4+ that express FoxP3 (naïve CD4+CD25− cells; RA 0.1 ng/ml, TGF-β 0 ng/ml): 2.71% | percent of CD4+ that express FoxP3 (naïve CD4+CD25− cells; RA 0.1 ng/ml, TGF-β 0.5 ng/ml): 11.98% | percent of CD4+ that express FoxP3 (naïve CD4+CD25− cells; RA 0.1 ng/ml, TGF-β 5 ng/ml): 35.18% | percent of CD4+ that express FoxP3 (naïve CD4+CD25− cells; RA 0.1 ng/ml, TGF-β 20 ng/ml): 28.33% | percent of CD4+ that express FoxP3 (naïve CD4+CD25− cells; RA 1 ng/ml, TGF-β 0 ng/ml): 2.64% | percent of CD4+ that express FoxP3 (naïve CD4+CD25− cells; RA 1 ng/ml, TGF-β 0.5 ng/ml): 10.5% | percent of CD4+ that express FoxP3 (naïve CD4+CD25− cells; RA 1 ng/ml, TGF-β 5 ng/ml): 44.71% | percent of CD4+ that express FoxP3 (naïve CD4+CD25− cells; RA 1 ng/ml, TGF-β 20 ng/ml): 42.25% | percent of CD4+ that express FoxP3 (naïve CD4+CD25− cells; RA 10 ng/ml, TGF-β 0 ng/ml): 2.27% | percent of CD4+ that express FoxP3 (naïve CD4+CD25− cells; RA 10 ng/ml, TGF-β 0.5 ng/ml): 9.36% | percent of CD4+ that express FoxP3 (naïve CD4+CD25− cells; RA 10 ng/ml, TGF-β 5 ng/ml): 42.22% | percent of CD4+ that express FoxP3 (naïve CD4+CD25− cells; RA 10 ng/ml, TGF-β 20 ng/ml): 45.97% | percent of CD4+ that express FoxP3 (naïve CD4+CD25− cells; RA 100 ng/ml, TGF-β 0 ng/ml): 2.23% | percent of CD4+ that express FoxP3 (naïve CD4+CD25− cells; RA 100 ng/ml, TGF-β 0.5 ng/ml): 10.01% | percent of CD4+ that express FoxP3 (naïve CD4+CD25− cells; RA 100 ng/ml, TGF-β 5 ng/ml): 50.71% | percent of CD4+ that express FoxP3 (naïve CD4+CD25− cells; RA 100 ng/ml, TGF-β 20 ng/ml): 43.43% | toxicity upon local administration [2]: induce hypervitaminosis-A
